Source: ChEMBL document CHEMBL1201862, “PubChem BioAssay data set” (2004)
The source made the active and inactive calls.

Columns and labels:
Protein skinhead-1 = molecular target: T1, Protein skinhead-1 (Caenorhabditis elegans, UniProt P34707); format: functional
T1 sequence (P34707 whole entry): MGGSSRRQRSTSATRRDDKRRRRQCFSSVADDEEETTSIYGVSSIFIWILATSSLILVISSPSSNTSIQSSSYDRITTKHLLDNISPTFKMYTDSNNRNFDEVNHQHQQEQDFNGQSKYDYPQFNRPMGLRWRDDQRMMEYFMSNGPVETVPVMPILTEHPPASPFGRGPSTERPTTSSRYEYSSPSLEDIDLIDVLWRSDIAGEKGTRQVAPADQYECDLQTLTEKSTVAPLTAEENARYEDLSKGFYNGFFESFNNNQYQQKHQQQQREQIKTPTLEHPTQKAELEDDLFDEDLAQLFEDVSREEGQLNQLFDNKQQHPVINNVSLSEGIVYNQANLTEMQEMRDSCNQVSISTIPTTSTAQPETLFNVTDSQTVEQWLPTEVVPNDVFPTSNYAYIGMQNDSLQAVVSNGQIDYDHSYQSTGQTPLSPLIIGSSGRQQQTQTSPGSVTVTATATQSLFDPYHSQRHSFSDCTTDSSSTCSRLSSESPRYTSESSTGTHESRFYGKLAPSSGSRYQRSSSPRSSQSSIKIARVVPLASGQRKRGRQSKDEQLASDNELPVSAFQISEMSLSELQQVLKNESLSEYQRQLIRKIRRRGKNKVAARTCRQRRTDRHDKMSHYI

[1] = molecular target: T2, DNA repair and recombination protein RAD54-like (Homo sapiens, UniProt Q92698); test: inhibitors of human RAD54 branch migration, confirmation, biochemical, fluorescence, cherry-picked samples, dose series (AID 651657); format: functional
T2 sequence (Q92698 whole entry): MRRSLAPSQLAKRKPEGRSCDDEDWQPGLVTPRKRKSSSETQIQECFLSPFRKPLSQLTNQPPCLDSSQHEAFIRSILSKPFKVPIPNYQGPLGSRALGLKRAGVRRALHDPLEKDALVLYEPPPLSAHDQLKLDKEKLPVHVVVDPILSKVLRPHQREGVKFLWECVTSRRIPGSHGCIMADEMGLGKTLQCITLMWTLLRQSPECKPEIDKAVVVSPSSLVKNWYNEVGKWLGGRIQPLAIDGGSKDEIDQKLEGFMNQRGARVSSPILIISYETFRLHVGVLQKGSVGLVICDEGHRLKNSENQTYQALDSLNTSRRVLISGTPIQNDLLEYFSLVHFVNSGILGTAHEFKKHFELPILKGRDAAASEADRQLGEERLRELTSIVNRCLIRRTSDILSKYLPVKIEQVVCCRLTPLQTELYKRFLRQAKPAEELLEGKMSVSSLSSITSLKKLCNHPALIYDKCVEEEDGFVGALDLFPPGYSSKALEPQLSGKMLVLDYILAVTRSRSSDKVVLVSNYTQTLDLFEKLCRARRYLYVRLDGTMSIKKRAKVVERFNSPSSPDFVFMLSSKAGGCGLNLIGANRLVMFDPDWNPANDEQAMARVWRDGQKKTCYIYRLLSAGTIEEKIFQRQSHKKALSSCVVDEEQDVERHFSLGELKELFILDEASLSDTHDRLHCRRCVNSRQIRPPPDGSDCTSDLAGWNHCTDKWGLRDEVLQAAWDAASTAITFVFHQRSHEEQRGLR

[2] = molecular target: Disintegrin and metalloproteinase domain-containing protein 17 (Homo sapiens, UniProt P78536); test: exosite inhibitors of ADAM17, dose response, biochemical (AID 743260)
Disintegrin and metalloproteinase domain-containing protein 17, sequence (P78536 whole entry, the tested form may be a part): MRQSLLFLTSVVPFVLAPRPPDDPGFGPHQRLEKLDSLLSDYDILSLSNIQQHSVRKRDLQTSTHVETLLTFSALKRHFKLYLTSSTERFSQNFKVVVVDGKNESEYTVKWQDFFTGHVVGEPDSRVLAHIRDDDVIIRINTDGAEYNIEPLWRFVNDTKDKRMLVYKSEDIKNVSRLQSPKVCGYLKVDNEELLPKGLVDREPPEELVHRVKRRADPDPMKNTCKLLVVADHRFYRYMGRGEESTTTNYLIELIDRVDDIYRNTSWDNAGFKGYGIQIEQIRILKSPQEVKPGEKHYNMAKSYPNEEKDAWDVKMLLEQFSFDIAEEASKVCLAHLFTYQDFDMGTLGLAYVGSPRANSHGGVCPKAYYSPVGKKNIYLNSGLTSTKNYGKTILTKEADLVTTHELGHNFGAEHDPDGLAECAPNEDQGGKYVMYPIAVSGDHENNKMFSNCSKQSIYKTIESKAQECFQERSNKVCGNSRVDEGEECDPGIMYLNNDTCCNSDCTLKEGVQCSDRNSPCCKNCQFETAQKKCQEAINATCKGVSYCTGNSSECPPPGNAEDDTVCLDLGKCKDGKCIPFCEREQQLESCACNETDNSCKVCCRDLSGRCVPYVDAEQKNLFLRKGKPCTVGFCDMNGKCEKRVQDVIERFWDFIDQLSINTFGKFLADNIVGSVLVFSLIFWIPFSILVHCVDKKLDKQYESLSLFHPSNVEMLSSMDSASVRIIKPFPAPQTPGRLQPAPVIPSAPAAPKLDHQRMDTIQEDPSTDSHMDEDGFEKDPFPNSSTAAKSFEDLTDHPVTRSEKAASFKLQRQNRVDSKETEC

[3] = ADAM10 protease inhibitors, dose response, selectivity assay for ADAM17 exosite inhibitor project, biochemical, FRET peptide substrate, recombinant human ADAM10 (AID 743259);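 further: ADAM10 enzyme cleaving a FRET peptide substrate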
[4] = inhibitors of firefly luciferase expression or activity, dose response, H4 neuroglioma cells, luminescence (AID 1990); format: functional, cell-based
[5] = cytotoxicity in HEK-293T cells, dose response, cytotoxicity control for TCR NF-kB inhibitor project, luminescence, T-cell screen hits (AID 489026); format: functional, cell-based;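 further: cells exposed to compound about 14 hours before the viability readout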
[6] = Luminescence Cell-Based Dose Response HTS to Identify Inhibitors of 5'UTR Stem-Loop Driven Prion Protein mRNA Translation in H4 Neuroglioblastoma Cells. [Related pubchem assays: 1827 (Project Summary), 1813 (Primary HTS)]; format: functional
[7] = inhibitors of SNCA 5'UTR-driven reporter translation, confirmation, H4 neuroglioma cells, luminescence (AID 1988); format: functional, cell-based
H9c2 = test: cells; format: functional, cell-based; conditions: Rattus norvegicus, H9c2, Myocardium;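 further: confirmatory concentration-response retest of ultra-high-throughput screening hits for modulation of myocardial damage; cell death induced by hydrogen peroxide oxidative stress; compound pretreatment for 60 min then peroxide exposure for 2 h; potency is for protecting the cells against peroxide damage rather than for killing them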
[8] = CEM21 lymphoblast cell cytotoxicity, dose response, cytotoxicity control for viral fusion inhibitor project, CellTiter-Glo luminescence, cherry-picked (AID 652042); format: functional, cell-based;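 further: potency for signal decrease meaning cytotoxicity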
[9] = cytotoxicity toward NIH3T3 fibroblasts, dose response, counter-screen, cell-based, ATP luminescence, mouse fibroblasts (AID 2010); format: functional;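 further: cells exposed to compound for about 90 hours before reading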
[10] = inhibitors of clade B AD8 Env fusion, dose response, cell-based, cherry-pick (AID 652062); format: functional;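 further: luciferase signal from cell-cell fusion driven by HIV-1 clade B AD8 Env; potency is for inhibitors of fusion seen as a drop in luminescence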
[11] = inhibitors of intracellular T. cruzi replication, confirmation, NIH3T3 host cells, beta-gal luminescence (AID 2044); format: functional, cell-based;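 further: intracellular parasites grown in NIH/3T3 mouse fibroblasts as host cells; luminescent beta-galactosidase reporter signal from transgenic T. cruzi replicating inside host cells; inhibitors lower the luminescence signal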
[12] = growth suppression of beta-catenin-knockout colon cells, dose response, cell-based, HCT116, human colon tumor (AID 1045); format: functional;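 further: HCT116 colon tumor cells with beta catenin knocked out; cells exposed to compound for 60 hours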
[13] = growth suppression of PTEN-null colon cells, dose response, cell-based, HCT116 PTEN knockout (AID 1047); format: functional;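 further: HCT116 colon tumor cells with PTEN knocked out; cells exposed to compound for 60 hours before readout; potency for loss of cell viability measured by luminescence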
[14] = molecular target: T3, Methionyl-tRNA synthetase, putative (Trypanosoma brucei brucei, UniProt Q38C91); format: functional, Trypanosoma brucei brucei strain 927/4 GUTat10.1
T3 sequence (Q38C91 whole entry): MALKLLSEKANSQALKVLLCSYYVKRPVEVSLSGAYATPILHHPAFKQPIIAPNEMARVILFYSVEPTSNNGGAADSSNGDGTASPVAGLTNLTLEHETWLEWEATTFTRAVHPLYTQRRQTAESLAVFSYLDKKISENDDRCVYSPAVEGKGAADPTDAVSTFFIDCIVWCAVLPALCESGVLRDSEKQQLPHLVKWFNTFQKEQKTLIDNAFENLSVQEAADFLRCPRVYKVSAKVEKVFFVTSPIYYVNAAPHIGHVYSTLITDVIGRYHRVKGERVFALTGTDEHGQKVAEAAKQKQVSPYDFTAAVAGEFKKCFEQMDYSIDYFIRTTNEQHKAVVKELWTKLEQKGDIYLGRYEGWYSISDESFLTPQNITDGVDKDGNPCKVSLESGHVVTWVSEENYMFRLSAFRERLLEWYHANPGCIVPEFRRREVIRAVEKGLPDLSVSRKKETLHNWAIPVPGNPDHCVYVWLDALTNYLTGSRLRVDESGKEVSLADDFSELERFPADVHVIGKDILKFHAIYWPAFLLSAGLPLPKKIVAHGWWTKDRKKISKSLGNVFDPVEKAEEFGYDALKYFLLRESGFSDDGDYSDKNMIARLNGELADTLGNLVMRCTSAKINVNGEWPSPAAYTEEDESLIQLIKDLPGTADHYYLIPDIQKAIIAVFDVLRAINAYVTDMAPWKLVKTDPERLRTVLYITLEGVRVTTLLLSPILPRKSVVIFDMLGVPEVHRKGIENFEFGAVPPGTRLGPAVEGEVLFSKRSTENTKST

[15] = molecular target: T3, Methionyl-tRNA synthetase, putative; format: functional, Trypanosoma brucei brucei strain 927/4 GUTat10.1; remark: listed apart in the source
[16] = Counterscreen for inhibitors of Trypanosoma brucei methionyl tRNA synthetase (MetRS): Luminescence-based cell-based high throughput dose response assay to identify compounds that are cytotoxic to Jurkat human T lymphocyte cells.; format: functional

Question: Which IC50 (Protein skinhead-1) does the source give for Cc1cccc(C)c1N(CC(=O)Nc1cccc(N(C)S(C)(=O)=O)c1)S(C)(=O)=O here?
Answer: The IC50 was > 100 µM (inactive).

Question: With COc1ccc(C(=O)Nc2ccc3nc(N4CCN(C)CC4)cc(C)c3c2)c(OC)c1 as the compound, how does the AC50 [1] read?
Answer: The AC50 was 32.9 µM (active).

Question: For Cc1cccc(COc2ccccc2C(=O)N(C)CC(=O)Nc2cccc(F)c2)c1, which IC50 [2] is on record?
Answer: Its IC50 is > 69.5 µM (inactive).

Question: What about the IC50 [3] of the same compound?
Answer: The IC50 was 25.5 µM (inactive).

Question: Which IC50 (Protein skinhead-1) does the source give for COc1ccc(NC(=O)c2ccc3c(c2)OCO3)cc1Cl here?
Answer: Its IC50 is > 100 µM (inactive).

Question: For CCOc1ccccc1N1CC(=O)C(c2nc3ccccc3s2)=C1N, which EC50 [4] is on record?
Answer: Its EC50 is 6.86 µM (inconclusive).

Question: What about the IC50 [5] of the same compound?
Answer: The IC50 was 44.6 µM (inactive).

Question: What about the EC50 [6] of the same compound?
Answer: The EC50 was 10.1 µM (active).

Question: And the EC50 [7]?
Answer: The EC50 was 4.59 µM (active).

Question: And the IC50 (H9c2)?
Answer: Its IC50 is > 79 µM (inactive).

Question: For CCCn1c(O)nnc1SCC(=O)c1ccc2c(c1)OCCO2, which IC50 (Protein skinhead-1) is on record?
Answer: The IC50 was > 100 µM (inactive).

Question: Which IC50 (Protein skinhead-1) does the source give for CN(c1ccccc1)c1nc2ccsc2c(=O)s1 here?
Answer: The IC50 was > 100 µM (inactive).

Question: For c1coc(CNc2c3c(nc4ccccc24)CCC3)c1, which AC50 [8] is on record?
Answer: Its AC50 is 65 µM (active).

Question: And the EC50 [9]?
Answer: The EC50 was > 60 µM (not active).

Question: What about the AC50 [10] of the same compound?
Answer: The AC50 was 32.9 µM (active).

Question: What about the EC50 [11] of the same compound?
Answer: Its EC50 is 2.41 µM (active).

Question: What about the EC50 [12] of the same compound?
Answer: Its EC50 is 27.1 µM (active).

Question: What about the EC50 [13] of the same compound?
Answer: The EC50 was 22.5 µM (active).

Question: What does the source list for O=C(NCCCCc1ccccc1)Nc1ccc(F)cc1?
Answer: IC50 [14]: 44.4 µM (inactive); IC50 [15]: 119 µM (inactive); IC50 [16]: 83.4 µM (inactive)

Question: With CCN(CC)S(=O)(=O)c1cc(NC(=O)Cc2ccc(S(=O)(=O)N3CCOCC3)s2)ccc1Cl as the compound, how does the IC50 [2] read?
Answer: The IC50 was > 69.5 µM (inactive).

Question: What about the IC50 [3] of the same compound?
Answer: Its IC50 is 11.4 µM (inactive).

Question: What does the source list for CN(C)S(=O)(=O)c1cccc(NC(=O)c2ccc(-n3cncn3)c([N+](=O)[O-])c2)c1?
Answer: IC50 [14]: 4.49 µM (active); IC50 [15]: 9.02 µM (active); IC50 [16]: 83.3 µM (inactive)
